Test results reported in article PMC1976805, “Preclinical pharmacokinetics of benznidazole” (British Journal of Cancer, 1984).
Where two headings read alike, the source gives them in different places.

Columns and labels:
[1] = Penetration into brain and peripheral nerve in dogs; format: in vivo, dog; details: 25 mg kg-1 oral; for brain concentration / peripheral nerve concentration / plasma concentration: dog H; for Kp at 4 h / Kp at 1 h / Kp at 2 h / Kp at 3 h: dog, po
Text: Br. J. Cancer (1984), 50, 291-303 Preclinical pharmacokinetics of benznidazole P. Workman', R.A.S. White2, M.I. Walton', L.N. Owen2* & P.R. Twentyman' 1MRC Clinical Oncology and Radiotherapeutics Unit, MRC Centre, Hills Road, Cambridge CB2 2QH, and 2Department of Clinical Veterinary Medicine, University of Cambridge, Madingley Road, Cambridge CB3 OES, UK. […] We have investigated the detailed pharmacokinetics of benznidazole in mice, dogs and sheep to provide a data base for the estimation of doses required for chemosensitization in man. Pharmacokinetic behaviour was linear except at high doses in mice. Absorption was fairly rapid and bioavailability was complete following both i.p. administration in mice and oral administration in dogs. Elimination t4 values were longer than for MISO, being 90 min in mice, 4-5 h in sheep and 9-11 h in dogs. At doses giving linear kinetics, peak whole plasma concentrations per administered mgkg-1 were 0.75 jigml-1 for the i.p. route in mice and 1.8jugmlP' for the oral route in dogs. Though between 39 and 59% of plasma benznidazole was bound to protein, tissue penetration was generally good. Tissue/whole plasma ratios ranged from 59-99% for transplantable mouse tumours and from 14-70% for spontaneous dog neoplasms. Nervous tissue penetration was similar to that in tumours: brain/whole plasma ratios averaged between 61 and 76% in mice and 42% in dogs, while peripheral nerve/whole plasma ratios in dogs averaged 74%. Mean liver/whole plasma ratios were 42% and 71% in BALB/c and C3H/He mouse strains respectively. Only -5% of the administered dose was excreted unchanged in the urine, indicating the likelihood of extensive metabolism. […] Enhancement of CCNU response is likely to require circulating benznidazole concentrations of 10-30 pgml-1 and we predict that these will be obtained with oral doses of 6-20 mgkg- 1 in man. […] This enhancement, or chemosensitization, is usually greater than that seen in dose-limiting normal tissues, resulting in an improved therapeutic index. Because of the relatively high doses of MISO usually required for chemosensitization in mice (see above refs), and also because of its neurotoxicity in man (Dische et al., 1977), we have been interested in finding an improved chemosensitizer. […] The lipophilic ana- logue benznidazole (N-benzyl-(2-nitroimidazolyl) acetamide, Ro 07-1051; Radanil; Roche), the structure of which is shown in Figure 1, was selected for detailed study because of its ability to *Present address: Animal Health Trust, Small Animals Centre, Lanwades Park, Kennett, Newmarket, Suffolk CB8 7PN, UK. Correspondence: P. Workman. […] These findings have been confirmed independently by Siemann et al. (1983). Although benznidazole is used quite widely in South America to treat patients with the trypanosomal infection Chagas' disease or with mucotaneous Leishmaniasis (Barclay et al., 1978; Cerisola et al., 1978; Coura et al., 1978; Fava et al., 1978), apart from our preliminary studies (White et al., 1982) the only published data on its pharmaco- kinetics are for human plasma concentrations measured by polarography (Raaflub & Ziegler, 1979; Raaflub, 1980). Here we describe the pharmacokinetics of benznidazole in the mouse, sheep and dog, as determined by high-performance liquid chromatography (HPLC). […] The Macmillan Press Ltd., 1984 292 P. WORKMAN et al. particularly on plasma and tumour concentrations, have been used as a basis for the estimation of the benznidazole doses required in a Phase I trial of benznidazole plus CCNU, at present ongoing in our Unit. Materials and methods Animals and tumours Adult inbred male BALB/c mice were obtained from OLAC (Southern) Ltd. (Bicester, UK) and adult inbred C3H/He mice of both sexes from OLAC and our own breeding colony. Mice were housed in plastic cages on sawdust bedding made from soft white woods, and allowed laboratory chow and water ad lib. They were used at 20-35 g body wt.

[2] = Tissue penetration in dogs bearing spontaneous neoplasms; format: in vivo, dog; details: for Kp: dog
Text: Br. J. Cancer (1984), 50, 291-303 Preclinical pharmacokinetics of benznidazole P. Workman', R.A.S. White2, M.I. Walton', L.N. Owen2* & P.R. Twentyman' 1MRC Clinical Oncology and Radiotherapeutics Unit, MRC Centre, Hills Road, Cambridge CB2 2QH, and 2Department of Clinical Veterinary Medicine, University of Cambridge, Madingley Road, Cambridge CB3 OES, UK. […] We have investigated the detailed pharmacokinetics of benznidazole in mice, dogs and sheep to provide a data base for the estimation of doses required for chemosensitization in man. Pharmacokinetic behaviour was linear except at high doses in mice. Absorption was fairly rapid and bioavailability was complete following both i.p. administration in mice and oral administration in dogs. Elimination t4 values were longer than for MISO, being 90 min in mice, 4-5 h in sheep and 9-11 h in dogs. At doses giving linear kinetics, peak whole plasma concentrations per administered mgkg-1 were 0.75 jigml-1 for the i.p. route in mice and 1.8jugmlP' for the oral route in dogs. Though between 39 and 59% of plasma benznidazole was bound to protein, tissue penetration was generally good. Tissue/whole plasma ratios ranged from 59-99% for transplantable mouse tumours and from 14-70% for spontaneous dog neoplasms. Nervous tissue penetration was similar to that in tumours: brain/whole plasma ratios averaged between 61 and 76% in mice and 42% in dogs, while peripheral nerve/whole plasma ratios in dogs averaged 74%. Mean liver/whole plasma ratios were 42% and 71% in BALB/c and C3H/He mouse strains respectively. Only -5% of the administered dose was excreted unchanged in the urine, indicating the likelihood of extensive metabolism. […] Enhancement of CCNU response is likely to require circulating benznidazole concentrations of 10-30 pgml-1 and we predict that these will be obtained with oral doses of 6-20 mgkg- 1 in man. […] This enhancement, or chemosensitization, is usually greater than that seen in dose-limiting normal tissues, resulting in an improved therapeutic index. Because of the relatively high doses of MISO usually required for chemosensitization in mice (see above refs), and also because of its neurotoxicity in man (Dische et al., 1977), we have been interested in finding an improved chemosensitizer. […] The lipophilic ana- logue benznidazole (N-benzyl-(2-nitroimidazolyl) acetamide, Ro 07-1051; Radanil; Roche), the structure of which is shown in Figure 1, was selected for detailed study because of its ability to *Present address: Animal Health Trust, Small Animals Centre, Lanwades Park, Kennett, Newmarket, Suffolk CB8 7PN, UK. Correspondence: P. Workman. […] These findings have been confirmed independently by Siemann et al. (1983). Although benznidazole is used quite widely in South America to treat patients with the trypanosomal infection Chagas' disease or with mucotaneous Leishmaniasis (Barclay et al., 1978; Cerisola et al., 1978; Coura et al., 1978; Fava et al., 1978), apart from our preliminary studies (White et al., 1982) the only published data on its pharmaco- kinetics are for human plasma concentrations measured by polarography (Raaflub & Ziegler, 1979; Raaflub, 1980). Here we describe the pharmacokinetics of benznidazole in the mouse, sheep and dog, as determined by high-performance liquid chromatography (HPLC). […]

[3] = Maximum tolerated dose in mice; details: male, mouse, in vivo, ip; BALB/c mice, i.p., highest dose used; read-out: maximum tolerated dose (about)
Text: Br. J. Cancer (1984), 50, 291-303 Preclinical pharmacokinetics of benznidazole P. Workman', R.A.S. White2, M.I. Walton', L.N. Owen2* & P.R. Twentyman' 1MRC Clinical Oncology and Radiotherapeutics Unit, MRC Centre, Hills Road, Cambridge CB2 2QH, and 2Department of Clinical Veterinary Medicine, University of Cambridge, Madingley Road, Cambridge CB3 OES, UK. […] We have investigated the detailed pharmacokinetics of benznidazole in mice, dogs and sheep to provide a data base for the estimation of doses required for chemosensitization in man. Pharmacokinetic behaviour was linear except at high doses in mice. Absorption was fairly rapid and bioavailability was complete following both i.p. administration in mice and oral administration in dogs. […] Although benznidazole is used quite widely in South America to treat patients with the trypanosomal infection Chagas' disease or with mucotaneous Leishmaniasis (Barclay et al., 1978; Cerisola et al., 1978; Coura et al., 1978; Fava et al., 1978), apart from our preliminary studies (White et al., 1982) the only published data on its pharmaco- kinetics are for human plasma concentrations measured by polarography (Raaflub & Ziegler, 1979; Raaflub, 1980). Here we describe the pharmacokinetics of benznidazole in the mouse, sheep and dog, as determined by high-performance liquid chromatography (HPLC). […]

[4] = brain/plasma, 25 mg kg-1, dog G, read-out: brain/plasma ratio
[5] = brain/plasma, 25 mg kg-1, dog H, read-out: brain/plasma ratio
[6] = peripheral nerve/plasma, 25 mg kg-1, dog G, read-out: peripheral nerve/plasma ratio
[7] = peripheral nerve/plasma, 25 mg kg-1, dog H, read-out: peripheral nerve/plasma ratio

- brain concentration ([1]; 3 h): 8.5 µg/g
- peripheral nerve concentration ([1]; 3 h): 14.7 µg/g
- plasma concentration ([1]; 3 h): 18700 ng/mL
- brain concentration ([1]; 4 h): 7.9 µg/g
- peripheral nerve concentration ([1]; 4 h): 15.6 µg/g
- plasma concentration ([1]; 4 h): 18500 ng/mL
- Kp at 4 h ([1]; brain, 25 mg kg-1, dog H, 4 h, read-out: brain/plasma ratio): 0.43
- Kp at 1 h [1, 4]: 0.35
- Kp at 2 h [1, 4]: 0.39
- Kp at 3 h ([1]; brain/plasma, 25 mg kg-1, dog G, 3 h, read-out: brain/plasma ratio): 0.49
- Kp at 4 h ([1]; brain/plasma, 25 mg kg-1, dog G, 4 h, read-out: brain/plasma ratio): 0.26
- Kp at 1 h [1, 5]: 0.5
- Kp at 2 h [1, 5]: 0.45
- Kp at 3 h ([1]; brain/plasma, 25 mg kg-1, dog H, 3 h, read-out: brain/plasma ratio): 0.45
- Kp at 3 h ([1]; peripheral nerve, 25 mg kg-1, dog H, 3 h, read-out: peripheral nerve/plasma ratio): 0.78
- Kp at 4 h ([1]; peripheral nerve, 25 mg kg-1, dog H, 4 h, read-out: peripheral nerve/plasma ratio): 0.84
- Kp at 1 h [1, 6]: 0.41
- Kp at 2 h [1, 6]: 0.9
- Kp at 4 h ([1]; peripheral nerve/plasma, 25 mg kg-1, dog G, 4 h, read-out: peripheral nerve/plasma ratio): 0.96
- Kp at 1 h [1, 7]: 0.6
- Kp at 2 h [1, 7]: 0.7
- brain/whole plasma ratio, overall mean (s.e., n=8) ([1]; two crossbred dogs, 1-4 h): 42+3%
- peripheral nerve/whole plasma ratio, mean (s.e., n=7) ([1]; two crossbred dogs, 1-4 h): 74+7%
- tissue/whole plasma ratio, overall mean + s.e. ([2]; 24 neoplastic tissue samples (excluding cyst fluid)): 50+3%
- absolute neoplastic tissue concentration, overall mean+s.e. ([2]; 24 samples, 1.67-4.5 h, normalised to 12.5 mg kg-1 oral): 5.6 +0.5 µg g-1
- Kp ([2]; liver/whole plasma, first of the two values obtained, read-out: liver/whole plasma ratio): 0.14
- Kp ([2]; liver/whole plasma, second of the two values obtained, read-out: liver/whole plasma ratio): 0.51
- Kp ([2]; tumour (spontaneous neoplastic tissue), po, neoplastic tissues, 12.5 (one dog 25) mg kg-1 oral, 1.67-4.5 h, read-out: tissue/whole plasma ratios, range): 0.14 to 0.7
Structure (SMILES): O=C(Cn1ccnc1[N+](=O)[O-])NCc1ccccc1 [benznidazole, N-benzyl-(2-nitroimidazolyl) acetamide]
- MTD [3]: ~832 mg/kg
